This note sets out measurements from PubChem BioAssay (NCI).

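Values below derive from 48-hour exposures of cells grown in 96-well plates, with endpoints linearly interpolated between the two concentrations bracketing the appropriate inhibition level. TGI marks complete inhibition of growth.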

One test has as its system SK-MEL-28 melanoma. The test can be described thus: DTP human tumour cell line panel, 48 h.
Molecule `CNC(=O)C(C)C1CCC2(C)C=CC(=O)C(C)=C2C1O` (stereo not drawn) registered a TGI of more than 100 µM.
`COc1cc2c(cc1OC)C(c1ccccc1CCCCl)=NCC2` registered a concentration for total growth inhibition (TGI) of 49.7 µM.
On the same count and under the same terms, then `Cc1cccc2c(=O)cc(-c3ccccc3)[nH]c12`, with more than 100 µM.
As to `CCN(CC)CCC(=O)Nc1ccc2c(c1)C(=O)c1ccc(NC(=O)CCN(CC)CC)cc1C2=O`, the TGI came to 24.6 µM.
On the same count and under the same terms, the same measure for `CC(C)c1ccc(/C=C2/C=C(c3ccc4ccccc4c3)OC2=O)cc1`: more than 100 µM.
For the molecule `CC(C)CCCCCCCCCCCCC(=O)NCC(=O)NC1C(C)OC(Nc2ncnc3c2ncn3C)C(O)C1O` (stereo not drawn), the TGI is more than 100 µM.
In turn, `CCCCCCCCCCCOc1ccc(C(=O)C(=O)c2ccc(OCCCCCCCCCCC)c(OCCCCCCCCCCC)c2)cc1OCCCCCCCCCCC` showed a TGI of more than 100 µM.
Take `CC(N)Cc1ccc(C(=O)Cl)cc1` (stereo not drawn): the TGI was more than 100 µM.
Molecule `COc1nc(N)c(C(=O)CCl)c(=O)n1C` came in with a TGI of 26.4 µM.
Same read-out and setting: the same measure for `CC1C=C(CCCCCCCCCCCC[C@@H](O)[C@@H]2CC[C@@H]([C@@H]3CC[C@@H](C(O)CCCCCCCCCCCCC4=C[C@H](C)OC4=O)O3)O2)C(=O)O1` (stereo partly drawn): more than 100 µM; for `CNC(=O)OCC1=C(COC(=O)NC)C(C)N(c2ccc(OC)cc2)C1` (stereo not drawn): more than 100 µM.
`O=C1c2ccccc2C2C1N2C(=O)C(F)(F)F` (stereo not drawn) came in with a TGI of more than 100 µM.
As for `CC(=O)NC1=C(NCCC(C)C)C(=O)c2ccccc2C1=O`, the TGI is more than 50 µM.
In turn, `O=S1(=O)NC(=NCc2c[nH]c3ccccc23)N(c2ccccc2)c2ccncc21` displayed a TGI of more than 100 µM.
Molecule `CC(=O)NNc1nc(C)c(C(=O)NNC(=O)C(=O)Nc2c(Cl)cc([N+](=O)[O-])cc2Cl)s1` returned a TGI of 69.8 µM.
Take `CCOC(=O)C1=C(C)NC(=S)NC1c1ccccc1` (stereo not drawn): the TGI was more than 100 µM.
The molecule `N.N.N.N.O=[N+]([O-])[O-].[Co+3].[N-]=[N+]=[N-].[N-]=[N+]=[N-]` displayed a TGI of more than 100 µM.
The molecule `CCC12C=CCN3CCC4(C(=C(C(=O)OC)[C@@H]1O)Nc1ccccc14)C32` (stereo partly drawn) gave a TGI of 4.13 µM.
`CC(=O)Nc1ccc(-c2nnc(SCC(=O)Nc3ccc([N+](=O)[O-])cc3)o2)cc1`: the TGI came to 27.7 µM.

The next test concerns SR leukemia. The test can be described thus: DTP human tumour cell line panel, 48 h.
`COc1cc([C@@H]2OCC3C(c4ccc5c(c4)OCO5)OCC32)cc(OC)c1OC` (stereo partly drawn): the TGI was more than 100 µM.
`C[C@]12CC[C@H](O)CC1=CC[C@@H]1C2CC[C@]2(C)C(=O)N(N)C(=O)CC12` (stereo partly drawn) displayed a TGI of more than 100 µM.
The molecule `Cc1ccccc1-n1c(=O)c2ncn(CCCl)c2n(-c2ccccc2C)c1=S` displayed a TGI of more than 100 µM.
`[N-]=[N+]=Nc1cc(=O)oc2ccccc12` registered a TGI of more than 100 µM.
`CCOC(=O)N1CCC2(CC1)C[C@](C)(C(C)=O)C(C)O2` (stereo partly drawn) came in with a TGI of more than 100 µM.
The same measure, in the same setting: then `Cc1cccc2c(=O)cc(-c3ccccc3)[nH]c12`, with more than 100 µM; and `COc1cc([C@@H]2c3cc4c(cc3[C@@H](Nc3ccc([N+](=O)[O-])cc3C(=O)c3ccccc3)[C@H]3COC(=O)[C@H]23)OCO4)cc(OC)c1OC`, with more than 100 µM.
In turn, `CCN(CC)CCC(=O)Nc1ccc2c(c1)C(=O)c1ccc(NC(=O)CCN(CC)CC)cc1C2=O` displayed a concentration for total growth inhibition (TGI) of 14.5 µM.
`CC(C)c1ccc(/C=C2/C=C(c3ccc4ccccc4c3)OC2=O)cc1` had a TGI of more than 52.4 µM.
The molecule `COc1nc(N)c(C(=O)CCl)c(=O)n1C` returned a TGI of 42.4 µM.
Take `CC1C=C(CCCCCCCCCCCC[C@@H](O)[C@@H]2CC[C@@H]([C@@H]3CC[C@@H](C(O)CCCCCCCCCCCCC4=C[C@H](C)OC4=O)O3)O2)C(=O)O1` (stereo partly drawn): the TGI was more than 55 µM.
Still for that read-out and setting: the same measure for `CNC(=O)OCC1=C(COC(=O)NC)C(C)N(c2ccc(OC)cc2)C1` (stereo not drawn): 93.8 µM; for `O=C1c2ccccc2C2C1N2C(=O)C(F)(F)F` (stereo not drawn): more than 100 µM; for `CC(=O)NC1=C(NCCC(C)C)C(=O)c2ccccc2C1=O`: more than 50 µM.
`CC(=O)NNc1nc(C)c(C(=O)NNC(=O)C(=O)Nc2c(Cl)cc([N+](=O)[O-])cc2Cl)s1` registered a TGI of more than 100 µM.
The molecule `CCOC(=O)C1=C(C)NC(=S)NC1c1ccccc1` (stereo not drawn) yielded a TGI of 50.2 µM.
As for `CCC12C=CCN3CCC4(C(=C(C(=O)OC)[C@@H]1O)Nc1ccccc14)C32` (stereo partly drawn), the TGI was 4.58 µM.
For the molecule `CC(=O)Nc1ccc(-c2nnc(SCC(=O)Nc3ccc([N+](=O)[O-])cc3)o2)cc1`, the TGI is more than 100 µM.

For another test, the system named is SW-620 colon. Put plainly: DTP human tumour cell line panel, 48 h.
Take `COc1cc([C@@H]2OCC3C(c4ccc5c(c4)OCO5)OCC32)cc(OC)c1OC` (stereo partly drawn): the concentration for total growth inhibition (TGI) was more than 100 µM.
`O=C1CCC23CC(C=CC=C12)n1c(=O)n(-c2ccccc2)c(=O)n13` (stereo not drawn): the TGI was more than 100 µM.
With `C[C@]12CC[C@H](O)CC1=CC[C@@H]1C2CC[C@]2(C)C(=O)N(N)C(=O)CC12` (stereo partly drawn), the TGI was more than 100 µM.
On the same count and under the same terms, the same measure for `Cc1ccccc1-n1c(=O)c2ncn(CCCl)c2n(-c2ccccc2C)c1=S`: more than 100 µM; for `N#CN=C(N(Cc1ccccc1)Cc1ccccc1)N(Cc1ccccc1)Cc1ccccc1`: more than 100 µM; for `[N-]=[N+]=Nc1cc(=O)oc2ccccc12`: more than 100 µM.
`CCOC(=O)N1CCC2(CC1)C[C@](C)(C(C)=O)C(C)O2` (stereo partly drawn) came in with a TGI of more than 100 µM.
As for `CNC(=O)C(C)C1CCC2(C)C=CC(=O)C(C)=C2C1O` (stereo not drawn), the TGI was more than 100 µM.
For the molecule `COc1cc2c(cc1OC)C(c1ccccc1CCCCl)=NCC2`, the TGI is more than 100 µM.
Turning to `Cc1cccc2c(=O)cc(-c3ccccc3)[nH]c12`, the concentration for total growth inhibition (TGI) is more than 100 µM.
Regarding `COc1cc([C@@H]2c3cc4c(cc3[C@@H](Nc3ccc([N+](=O)[O-])cc3C(=O)c3ccccc3)[C@H]3COC(=O)[C@H]23)OCO4)cc(OC)c1OC`, the TGI is more than 100 µM.
Molecule `CCN(CC)CCC(=O)Nc1ccc2c(c1)C(=O)c1ccc(NC(=O)CCN(CC)CC)cc1C2=O` gave a concentration for total growth inhibition (TGI) of 6.93 µM.
As for `CC(C)c1ccc(/C=C2/C=C(c3ccc4ccccc4c3)OC2=O)cc1`, the TGI was more than 100 µM.
`CC(C)CCCCCCCCCCCCC(=O)NCC(=O)NC1C(C)OC(Nc2ncnc3c2ncn3C)C(O)C1O` (stereo not drawn) displayed a TGI of more than 100 µM.
For the molecule `CCCCCCCCCCCOc1ccc(C(=O)C(=O)c2ccc(OCCCCCCCCCCC)c(OCCCCCCCCCCC)c2)cc1OCCCCCCCCCCC`, the TGI was more than 100 µM.
Molecule `CC(N)Cc1ccc(C(=O)Cl)cc1` (stereo not drawn) came in with a TGI of more than 100 µM.
As for `COc1nc(N)c(C(=O)CCl)c(=O)n1C`, the TGI was determined as 28.5 µM.
In the case of `CC1C=C(CCCCCCCCCCCC[C@@H](O)[C@@H]2CC[C@@H]([C@@H]3CC[C@@H](C(O)CCCCCCCCCCCCC4=C[C@H](C)OC4=O)O3)O2)C(=O)O1` (stereo partly drawn), the TGI was more than 100 µM.
Molecule `CNC(=O)OCC1=C(COC(=O)NC)C(C)N(c2ccc(OC)cc2)C1` (stereo not drawn) gave a TGI of more than 100 µM.
As for `O=C1c2ccccc2C2C1N2C(=O)C(F)(F)F` (stereo not drawn), the TGI was more than 100 µM.
Still for that read-out and setting: the same measure for `CC(=O)NC1=C(NCCC(C)C)C(=O)c2ccccc2C1=O`: more than 50 µM; for `O=S1(=O)NC(=NCc2c[nH]c3ccccc23)N(c2ccccc2)c2ccncc21`: more than 100 µM.
On the same count and under the same terms, then `CC(=O)NNc1nc(C)c(C(=O)NNC(=O)C(=O)Nc2c(Cl)cc([N+](=O)[O-])cc2Cl)s1`, with 78.5 µM.
`N.N.N.N.O=[N+]([O-])[O-].[Co+3].[N-]=[N+]=[N-].[N-]=[N+]=[N-]` registered a TGI of more than 100 µM.
`CCC12C=CCN3CCC4(C(=C(C(=O)OC)[C@@H]1O)Nc1ccccc14)C32` (stereo partly drawn) came in with a TGI of 3.3 µM.
The same measure, in the same setting: then `CC(=O)Nc1ccc(-c2nnc(SCC(=O)Nc3ccc([N+](=O)[O-])cc3)o2)cc1`, with 29.7 µM.

In general, TGI refers to the concentration at which net growth stops. A lower TGI goes with greater sensitivity of the cells.
